Assay: Mouse single administration toxicity test
Format: in vivo, Balb/C mice
Conditions: 3 mg/kg single intravenous administration, observation period of 2 weeks
Experimental: (Test methods) The compounds of the invention were administered by single intravenous administration to Balb/C mice, and the presence of mortal case during the observation period of 2 weeks was evaluated.

Structure (SMILES) | presence of mortal case
COCCNC1=C(N(Cc2ccncc2)C(C)=O)C(=O)c2ccccc2C1=O [Example 4, N-[3-(2-methoxyethyl)amino-1,4-dihydro-1,4-dioxo-2-naphthalenyl]-N-(4-pyridylmethyl)acetamide] | Mortal case was not found
COCC[n+]1c2c(n(Cc3ccc(Cl)nc3)c1C)C(=O)c1ccccc1C2=O.[Cl-] [Example 9, 1-[(6-chloro-3-pyridyl)methyl]-3-(2-methoxyethyl)-2-methyl-4,9-dioxo-4,9-dihydro-1H-naphtho[2,3-d]imidazol-3-ium chloride] | Mortal case was not found
COCCN(C(C)=O)C1=C(NCc2ccncc2)C(=O)c2ccccc2C1=O [Example 37, N-(2-methoxyethyl)-N-[3-(4-pyridylmethyl)amino-1,4-dihydro-1,4-dioxo-2-naphthalenyl]acetamide] | Mortal case was not found
COCCN(C(C)=O)C1=C(NCc2cccnc2)C(=O)c2ccccc2C1=O [Example 35, N-(2-methoxyethyl)-N-[3-(3-pyridylmethyl)amino-1,4-dihydro-1,4-dioxo-2-naphthalenyl]acetamide] | Mortal case was not found
COCC[n+]1c2c(n(Cc3ccc(OC)nc3)c1C)C(=O)c1ccccc1C2=O [Example 186, 3-(2-methoxyethyl)-1-[(6-methoxy-3-pyridyl)methyl]-2-methyl-4,9-dioxo-4,9-dihydro-1H-naphtho[2,3-d]imidazol-3-ium] | Mortal case was not found
COCC[n+]1c2c(n(Cc3cnccn3)c1C)C(=O)c1ccccc1C2=O [Example 154, 3-(2-methoxyethyl)-2-methyl-4,9-dioxo-1-(2-pyrazinylmethyl)-4,9-dihydro-1H-naphtho[2,3-d]imidazol-3-ium] | Mortal case was not found
COCCn1c2c([n+](Cc3ccncc3)c1C)C(=O)c1ccccc1C2=O.Cl.[Cl-] [Example 182, 1-(2-methoxyethyl)-2-methyl-3-(4-pyridylmethyl)-4,9-dihydro-4,9-dioxo-1H-naphtho[2,3-d]imidazol-3-ium chloride monohydrochloride] | Mortal case was not found
COCCn1c2c([n+](CCOC)c1C)C(=O)c1ccccc1C2=O [Example 148, 1,3-bis(2-methoxyethyl)-2-methyl-4,9-dioxo-4,9-dihydro-1H-naphtho[2,3-d]imidazol-3-ium] | Mortal case was not found
Cn1c2c([n+](C)c1CCl)C(=O)c1ccccc1C2=O [KP-1, reference compound] | all of respective 2 cases died
COCC[n+]1c2c(n(Cc3ccnc(Cl)c3)c1C)C(=O)c1ccccc1C2=O [Example 192, 1-[(2-chloro-4-pyridyl)methyl]-3-(2-methoxyethyl)-2-methyl-4,9-dioxo-4,9-dihydro-1H-naphtho[2,3-d]imidazol-3-ium] | Mortal case was not found
COCC[n+]1c2c(n(Cc3cccnc3Cl)c1C)C(=O)c1ccccc1C2=O [Example 184, 1-[(2-chloro-3-pyridyl)methyl]-3-(2-methoxyethyl)-2-methyl-4,9-dioxo-4,9-dihydro-1H-naphtho[2,3-d]imidazol-3-ium] | Mortal case was not found
COCCn1c2c([n+](Cc3cccnc3)c1C)C(=O)c1ccccc1C2=O [Example 180, 1-(2-methoxyethyl)-2-methyl-4,9-dioxo-3-(3-pyridylmethyl)-4,9-dihydro-1H-naphtho[2,3-d]imidazol-3-ium] | Mortal case was not found
COCC[n+]1c2c(n(Cc3ccnc(O)c3)c1C)C(=O)c1ccccc1C2=O [Example 185, 1-[(2-hydroxy-4-pyridyl)methyl]-3-(2-methoxyethyl)-2-methyl-4,9-dioxo-4,9-dihydro-1H-naphtho[2,3-d]imidazol-3-ium] | Mortal case was not found
CCn1c2c([n+](CC)c1C)C(=O)c1ccccc1C2=O [KP-3, reference compound] | all of respective 2 cases died
COCC[n+]1c2c(n(Cc3ccc(Cl)cc3)c1C)C(=O)c1ccccc1C2=O [Example 197, 1-(4-chlorobenzyl)-3-(2-methoxyethyl)-2-methyl-4,9-dioxo-4,9-dihydro-1H-naphtho[2,3-d]imidazol-3-ium] | Mortal case was not found

Source: patent US6734203B2, “Fused imidazolium derivatives” (priority 2000, dated 2004)
